In US20180042874A1, “METHOD FOR TREATING OSTEOPOROSIS” (China Medical University, priority 2016, published 2018):

What was measured:
c-Fos = assay: Western blot of MAPK downstream protein c-Fos; format: cell-based, mouse; details: 10 μg/ml co-treated with 100 ng/ml RANKL, 48 hours
Description: (§1) The effect of the compound of formula I on the protein expression of osteoclast MAPKs pathways induced by receptor activator of nuclear factor κB ligand was studied, experiments were performed by using the Western blot method; RAW 264.7 cells were rinsed in ice-cold PBS, cell lysis buffer was added, the components of the buffer solution included: 10 mM 4-(2-hydroxyethyl)-1-piperazineethanesulfonic acid (HEPES), 1.5 mM MgCl2, 0.5 mM dithiothreitol (DTT), 0.5 μg/ml leupeptin and 6.4% Nonidet P-40, reacted on ice for 15 minutes. The cells were scraped off with a spatula, collected into a 1.5 ml centrifuge tube, the cells were thoroughly broken by using a shaker; centrifuged at 12,000 rpm, 4° C. for 10 minutes; supernatant was added into a new 1.5 ml centrifuge tube; boiled with IX sodiumdodecyl sulfate (SDS) sample buffer, followed by electrophoresis using 10 to 12% SDS-PAGE. […] The transfer membrane was rinsed again and the membrane loaded with chemical luminescence reagent ECL was allowed to react with a photosensitive sheet in a darkroom for a suitable period of time, the photosensitive sheet then reacted with the developer. After the photosensitive sheet was exposed to light a band-shaped antibody-binding proteins was observed, quantified by the density of the bands. […]

RAW 264.7 cells = assay: Cytotoxicity test (MTT colorimetric assay); format: cell-based
Source text: MTT (3-(4,5-dimethylthiazol-2-yl)-2,5-diphenyl tetrazolium bromide is yellow when dissolved in a phenol red-free medium. The yellow MTT solution is reduced by succinate dehydrogenase in mitochondria of living cells into purple insoluble formazan crystals, deposited in the cells generating blue formazan crystals. The amount of formazan crystals produced is proportional to the number of viable cells (succinate dehydrogenase in dead cells is degraded and unable to reduce MTT). Formazan crystals can be dissolved in acidic isopropanol or dimethyl sulfoxide (DMSO), and an enzyme linked immunosorbent assay detector can be used to measure the light absorption value, therefore, MTT can be used as a marker for cell survival rate.
Cytotoxicity test of the compound of formula I in RAW 264.7 cells was studied and detected by using the MTT colorimetric assay. […] After being cultured in an incubator at 37° C. for 4 hours, equivalent amount of cell culture solution by volume was added into dimethyl sulfoxide to dissolve MTT Formazan, 100 μl was respectively collected and placed in a 96 well-plate, and the light absorption value at 570 nm was determined by using an enzyme immunosorbent assay detector. The Cell survival rate (%) was calculated by using the following formula: (light absorption value of drug-treated cells)/light absorption value of culture solution-treated cells)×100%.
Firstly, we would like to know whether the compound of formula I were toxic to RAW 264.7 cells, and concentrations appropriate for subsequent experiments were to be selected. After being treated with 0, 1, 5, 10, 20, 40, 80 μg/ml of the compound of formula I for 72 hours, detected with the MTT colorimetric assay. […] To confirm the selected concentrations of the compound of formula I would not produce cytotoxin in the subsequent experiments, 10 μg/ml, 20 μg/ml of the compound of formula I were respectively used for treatment of 3, 6, 9, 12 days, the culture solution was replaced with fresh ones of the same condition once every three days and then detected with the MTT colorimetric assay.

JNK = assay: Western blot of MAPK pathway, phosphorylated JNK; format: cell-based, mouse; details: 10 μg/ml co-treated with 100 ng/ml RANKL, 0-60 minutes
Description: as §1

CNC(=O)N[C@]1(C)CCC[C@@]2(C)C3CC[C@@]4(C)C[C@]3(CCC21)CC4=O (single isomer, unassigned; ent-16) [compound of formula I, ent-16-oxobeyeran-19-N-methylureido]
c-Fos protein expression (c-Fos): significantly reduced
cytotoxicity over time (MTT) (RAW 264.7 cells; 10 μg/ml, 3, 6, 9, 12 days): no cytotoxin was produced
concentration above which cytotoxic (decreased survival rate) (RAW 264.7 cells; 72 hours): higher than 40 μg/ml
IC50 (RAW 264.7 cells; Mus musculus, RAW264.7, 72 hours, 0-80 μg/ml, read-out: IC50 (cell survival rate, MTT)): ~40 mg/L
expression of phosphorylated JNK (JNK): decreased
